In patent US20230013823A1, “INHIBITORS OF HUMAN IMMUNODEFICIENCY VIRUS REPLICATION” (VIV HEALTHCARE UK (No. 5) LIMITED, priority 2019, published 2023):
pEC50: −log10 of the molar value.

What was measured:
[1] = system: recombinant NL4-3 virus (Renilla luciferase in nef); assay: HIV cell culture assay (antiviral activity, luciferase readout in MT-2 cells); assay type: cell-based; conditions: Renilla, NL43
Method: HIV cell culture assay—MT=2 cells, 293T cells and the proviral DNA clone of NL4-3 virus were obtained from the NIH AIDS Research and Reference Reagent Program. MT=2 cells were propagated in RPMI 1640 media supplemented with 10% heat inactivated fetal bovine serum (FBS), […] penicillin G and up to 100 units/mL streptomycin. The 293T cells were propagated in DMEM media supplemented with 10% heat inactivated FBS, […] penicillin G and […] streptomycin. A recombinant NL4-3 proviral clone, in which a section of the nef gene was replaced with the Renilla luciferase gene, was used to make the reference virus used in these studies. The recombinant virus was prepared through transfection of the recombinant NL4-3 proviral clone into 293T cells using Transit-293 Transfection Reagent from Mirus Bio LLC (Madison, Wis.). Supernatent was harvested after 2-3 days and the amount of virus present was titered in MT=2 cells using luciferase enzyme activity as a marker by measuring luciferase enzyme activity. Luciferase was quantitated using the EnduRen Live Cell Substrate from Promega (Madison, Wis.). Antiviral activities of compounds toward the recombinant virus were quantified by measuring luciferase activity in MT=2 cells infected for 4-5 days with the recombinant virus in the presence of serial dilutions of the compound.
The 50% effective concentration (EC50) was calculated by using the exponential form of the median effect equation where (Fa)=1/[1+(ED50/drug conc.)m] (Johnson V A, Byington R T. Infectivity Assay. In Techniques in HIV Research. ed. Aldovini A, Walker B D. 71-76. New York: Stockton Press. 1990). The 50% inhibitory concentration (EC50) was calculated by using the exponential form of the median effect equation where percent inhibition=1/[1+(EC50/drug concentration)m], where m is a parameter that reflects the slope of the concentration-response curve.

[2] = Compound cytotoxicity, XTT-based colorimetric assay; assay type: cell-based; conditions: human; uninfected MT2 cells, day 4, XTT
Method: Compound cytotoxicity and the corresponding CC50 values were determined using the same protocol as described in the antiviral assay except that uninfected cells were used. Cytotoxicity was assessed on day 4 in uninfected MT2 cells by using an XTT (2,3-bis[2-Methoxy-4-nitro-5-sulfophenyl]-2H-tetrazolium-5-carboxyanilide inner salt)-based colorimetric assay (Sigma-Aldrich, St Louis, Mo.).

Compound `Cn1nc(NS(C)(=O)=O)c2c(Cl)ccc(-n3c([C@H](Cc4cc(F)cc(F)c4)NC(=O)Cn4nc(C(F)F)c5c4C(F)(F)[C@@H]4C[C@H]54)nc4cc(-c5csc(C(F)(F)F)n5)ccc4c3=O)c21` (atropisomer, axis not shown; (P)) [Example 1, N—((S)-1-((3P)-3-(4-chloro-1-methyl-3-(methylsulfonamido)-1H-indazol-7-yl)-4-oxo-7-(2-(trifluoromethyl)thiazol-4-yl)-3,4-dihydroquinazolin-2-yl)-2-(3,5-difluorophenyl)ethyl)-2-((3bS,4aR)-3-(difluoromethyl)-5,5-difluoro-3b,4,4a,5-tetrahydro-1H-cyclopropa[3,4]cyclopenta[1,2-c]pyrazol-1-yl)acetamide] has a pEC50 [1] of 10.04 and a CC50 at 4 days [2] greater than 100 nM.
`COc1nccc(-c2ccc3c(=O)n(-c4ccc(Cl)c5c(NS(C)(=O)=O)nn(C)c45)c([C@H](Cc4cc(F)cc(F)c4)NC(=O)Cn4nc(C(F)F)c5c4C(F)(F)[C@@H]4C[C@H]54)nc3c2)n1` (atropisomer, axis not shown; (P)) [Example 5, N—((S)-1-((3P)-3-(4-chloro-1-methyl-3-(methylsulfonamido)-1H-indazol-7-yl)-7-(2-methoxypyrimidin-4-yl)-4-oxo-3,4-dihydroquinazolin-2-yl)-2-(3,5-difluorophenyl)ethyl)-2-((3bS,4aR)-3-(difluoromethyl)-5,5-difluoro-3b,4,4a,5-tetrahydro-1H-cyclopropa[3,4]cyclopenta[1,2-c]pyrazol-1-yl)acetamide] gave a pEC50 [1] of 10.08 and a CC50 at 4 days [2] greater than 500 nM.
With `Cn1nc(NS(C)(=O)=O)c2c(Cl)ccc(-n3c([C@H](Cc4cc(F)cc(F)c4)NC(=O)Cn4nc(C(F)F)c5c4C(F)(F)[C@@H]4C[C@H]54)nc4cc(-c5ccc(F)nc5F)ccc4c3=O)c21` (atropisomer, axis not shown; (P)) [Example 6, N—((S)-1-((3P)-3-(4-chloro-1-methyl-3-(methylsulfonamido)-1H-indazol-7-yl)-7-(2,6-difluoropyridin-3-yl)-4-oxo-3,4-dihydroquinazolin-2-yl)-2-(3,5-difluorophenyl)ethyl)-2-((3bS,4aR)-3-(difluoromethyl)-5,5-difluoro-3b,4,4a,5-tetrahydro-1H-cyclopropa[3,4]cyclopenta[1,2-c]pyrazol-1-yl)acetamide] the pEC50 [1] was 10.33.
`Cn1nc(NS(C)(=O)=O)c2c(Cl)ccc(-n3c([C@H](Cc4cc(F)cc(F)c4)NC(=O)Cn4nc(C(F)F)c5c4C(F)(F)[C@@H]4C[C@H]54)nc4cc(-c5ncc(F)cc5F)ccc4c3=O)c21` (atropisomer, axis not shown; (P)) [Example 7, N—((S)-1-((3P)-3-(4-chloro-1-methyl-3-(methylsulfonamido)-1H-indazol-7-yl)-7-(3,5-difluoropyridin-2-yl)-4-oxo-3,4-dihydroquinazolin-2-yl)-2-(3,5-difluorophenyl)ethyl)-2-((3bS,4aR)-3-(difluoromethyl)-5,5-difluoro-3b,4,4a,5-tetrahydro-1H-cyclopropa[3,4]cyclopenta[1,2-c]pyrazol-1-yl)acetamide] showed a pEC50 [1] of 9.77 and a CC50 at 4 days [2] greater than 500 nM.
Work on `Cn1nc(NS(C)(=O)=O)c2c(Cl)ccc(-n3c([C@H](Cc4cc(F)cc(F)c4)NC(=O)Cn4nc(C(F)F)c5c4C(F)(F)[C@@H]4C[C@H]54)nc4cc(-c5ncc(Cl)cc5F)ccc4c3=O)c21` (atropisomer, axis not shown; (P)) [Example 8, N—((S)-1-((3P)-3-(4-chloro-1-methyl-3-(methylsulfonamido)-1H-indazol-7-yl)-7-(5-chloro-3-fluoropyridin-2-yl)-4-oxo-3,4-dihydroquinazolin-2-yl)-2-(3,5-difluorophenyl)ethyl)-2-((3bS,4aR)-3-(difluoromethyl)-5,5-difluoro-3b,4,4a,5-tetrahydro-1H-cyclopropa[3,4]cyclopenta[1,2-c]pyrazol-1-yl)acetamide] yielded a pEC50 [1] of 9.52 and a CC50 at 4 days [2] greater than 500 nM.
Work on `Cn1nc(NS(C)(=O)=O)c2c(Cl)ccc(-n3c([C@H](Cc4cc(F)cc(F)c4)NC(=O)Cn4nc(C(F)F)c5c4C(F)(F)[C@@H]4C[C@H]54)nc4cc(-c5ccnc(S(C)(=O)=O)n5)ccc4c3=O)c21` (atropisomer, axis not shown; (P)) [Example 9, N—((S)-1-((3P)-3-(4-chloro-1-methyl-3-(methylsulfonamido)-1H-indazol-7-yl)-7-(2-(methylsulfonyl)pyrimidin-4-yl)-4-oxo-3,4-dihydroquinazolin-2-yl)-2-(3,5-difluorophenyl)ethyl)-2-((3bS,4aR)-3-(difluoromethyl)-5,5-difluoro-3b,4,4a,5-tetrahydro-1H-cyclopropa[3,4]cyclopenta[1,2-c]pyrazol-1-yl)acetamide] yielded a pEC50 [1] of 9.82 and a CC50 at 4 days [2] greater than 500 nM.
In the case of `Cn1nc(NS(C)(=O)=O)c2c(Cl)ccc(-n3c([C@H](Cc4cc(F)cc(F)c4)NC(=O)Cn4nc(C(F)F)c5c4C(F)(F)[C@@H]4C[C@H]54)nc4cc(-c5ncc(F)cc5Cl)ccc4c3=O)c21` (atropisomer, axis not shown; (P)) [Example 10, N—((S)-1-((3P)-3-(4-chloro-1-methyl-3-(methylsulfonamido)-1H-indazol-7-yl)-7-(3-chloro-5-fluoropyridin-2-yl)-4-oxo-3,4-dihydroquinazolin-2-yl)-2-(3,5-difluorophenyl)ethyl)-2-((3bS,4aR)-3-(difluoromethyl)-5,5-difluoro-3b,4,4a,5-tetrahydro-1H-cyclopropa[3,4]cyclopenta[1,2-c]pyrazol-1-yl)acetamide], the pEC50 [1] was 9.96.
With `Cn1nc(NS(C)(=O)=O)c2c(Cl)ccc(-n3c([C@H](Cc4cc(F)cc(F)c4)NC(=O)Cn4nc(C(F)F)c5c4C(F)(F)[C@@H]4C[C@H]54)nc4cc(-c5ccnc(C#N)n5)ccc4c3=O)c21` (atropisomer, axis not shown; (P)) [Example 11, N—((S)-1-((3P)-3-(4-chloro-1-methyl-3-(methylsulfonamido)-1H-indazol-7-yl)-7-(2-cyanopyrimidin-4-yl)-4-oxo-3,4-dihydroquinazolin-2-yl)-2-(3,5-difluorophenyl)ethyl)-2-((3bS,4aR)-3-(difluoromethyl)-5,5-difluoro-3b,4,4a,5-tetrahydro-1H-cyclopropa[3,4]cyclopenta[1,2-c]pyrazol-1-yl)acetamide] the pEC50 [1] was 10.05 and the CC50 at 4 days [2] was greater than 500 nM.
For `Cc1cc(C#N)nc(-c2ccc3c(=O)n(-c4ccc(Cl)c5c(NS(C)(=O)=O)nn(C)c45)c([C@H](Cc4cc(F)cc(F)c4)NC(=O)Cn4nc(C(F)F)c5c4C(F)(F)[C@@H]4C[C@H]54)nc3c2)n1` (atropisomer, axis not shown; (P)) [Example 12, N—((S)-1-((3P)-3-(4-chloro-1-methyl-3-(methylsulfonamido)-1H-indazol-7-yl)-7-(4-cyano-6-methylpyrimidin-2-yl)-4-oxo-3,4-dihydroquinazolin-2-yl)-2-(3,5-difluorophenyl)ethyl)-2-((3bS,4aR)-3-(difluoromethyl)-5,5-difluoro-3b,4,4a,5-tetrahydro-1H-cyclopropa[3,4]cyclopenta[1,2-c]pyrazol-1-yl)acetamide], the pEC50 [1] was 10.06 and the CC50 at 4 days [2] was greater than 500 nM.
In the case of `COc1nc(C)cc(-c2ccc3c(=O)n(-c4ccc(Cl)c5c(NS(C)(=O)=O)nn(C)c45)c([C@H](Cc4cc(F)cc(F)c4)NC(=O)Cn4nc(C(F)F)c5c4C(F)(F)[C@@H]4C[C@H]54)nc3c2)n1` (atropisomer, axis not shown; (P)) [Example 16, N—((S)-1-((3P)-3-(4-chloro-1-methyl-3-(methylsulfonamido)-1H-indazol-7-yl)-7-(2-methoxy-6-methylpyrimidin-4-yl)-4-oxo-3,4-dihydroquinazolin-2-yl)-2-(3,5-difluorophenyl)ethyl)-2-((3bS,4aR)-3-(difluoromethyl)-5,5-difluoro-3b,4,4a,5-tetrahydro-1H-cyclopropa[3,4]cyclopenta[1,2-c]pyrazol-1-yl)acetamide], the pEC50 [1] was 9.96 and the CC50 at 4 days [2] was greater than 500 nM.
Compound `Cn1nc(NS(C)(=O)=O)c2c(Cl)ccc(-n3c([C@H](Cc4cc(F)cc(F)c4)NC(=O)Cn4nc(C(F)F)c5c4C(F)(F)[C@@H]4C[C@H]54)nc4cc(-c5cncc(C(F)F)c5)ccc4c3=O)c21` (atropisomer, axis not shown; (P)) [Example 17, N—((S)-1-((3P)-3-(4-chloro-1-methyl-3-(methylsulfonamido)-1H-indazol-7-yl)-7-(5-(difluoromethyl)pyridin-3-yl)-4-oxo-3,4-dihydroquinazolin-2-yl)-2-(3,5-difluorophenyl)ethyl)-2-((3bS,4aR)-3-(difluoromethyl)-5,5-difluoro-3b,4,4a,5-tetrahydro-1H-cyclopropa[3,4]cyclopenta[1,2-c]pyrazol-1-yl)acetamide] has a pEC50 [1] of 10.11 and a CC50 at 4 days [2] greater than 500 nM.
